Test results taken from patent US9133505B2 (priority 2010, dated 2015).
“And” between values parts separate entries of the source, which are not always exact repeats. Equal values may be shown once. Read-outs that look alike come from different tables or passages of the source.

How the values were obtained:
[1] = test system: Pig-A mutant phenotype RBCs and RETs
[2] = Mortality in 28-day 1,3-PS study; format: in vivo, Sprague Dawley rat; settings: 50 mg/kg/day oral gavage, group of six male rats
Method: Groups consisting of six male Sprague Dawley rats (7-8 weeks old) were treated on twenty-eight consecutive days (i.e., days 1 through 28) with either water (vehicle), 12.5 mg 1,3-PS per kilogram body weight per day, 25 mg 1,3-PS per kilogram body weight per day, or 50 mg 1,3-PS per kilogram body weight per day via oral gavage. […] Tail vein blood specimens were collected on day −1 (i.e., one day before the start of treatment), and again on days 15, 29, and 42.

[3] = test system: Pig-A mutant phenotype RBCs and RETs; assay: Pig-A mutation assay, spiking experiment (Example 2); settings: blood day 35
[4] = test system: reticulocytes; assay: Percentage of reticulocytes among total erythrocytes (bone marrow toxicity), pre-magnetic field analysis
[5] = test system: Pig-A mutant phenotype RBCs and RETs; assay: Pig-A mutation assay, technical replicates (Example 1): flow cytometric scoring of CD59-negative RBCs/RETs before and after immunomagnetic separation; settings: 60 mg/kg/day oral gavage days 1-3, blood day 29
[6] = 28 consecutive days oral gavage, 6 male rats per group, maximum observed on d42
[7] = 28 consecutive days oral gavage, 6 male rats per group, maximum observed on d29
[8] = "100" sample: 40 mg/kg/day 1,3-PS days 1-14, from pre- and post-magnetic field ratios (Table VI), listed as 100
[9] = "100" sample: 40 mg/kg/day 1,3-PS days 1-14, post-magnetic field, 4 min, listed as 100
[10] = "100" sample: 40 mg/kg/day 1,3-PS days 1-14, post-magnetic field, listed as 100
[11] = calculated from pre- and post-magnetic field ratios, technical replicates, listed as PS
[12] = post-magnetic field, 4 min acquisition, technical replicates, listed as PS
[13] = post-magnetic field, technical replicates, listed as PS
[14] = pre-magnetic field, 3 min acquisition, technical replicates of one rat, listed as PS

N[C@@H](Cc1ccc(N(CCCl)CCCl)cc1)C(=O)O [Melphalan]
Maximum Avg. Mutant Cell Freq., Mutant RBCs [1, 6]: 23 Mutant RBCs (d42) × 10^−6 | Maximum Avg. Mutant Cell Freq., Mutant RETs [1, 6]: 33 Mutant RETs (d42); × 10^−6

O=S1(=O)CCCO1 [1,3-Propane Sultone, 1,3-propane sultone]
Mortality [2]: one rat in the high dose group died on day 11 | Mutant RBC frequency versus vehicle-treated rats (in words) ([1]; 12.5, 25, 50 (reduced to 37.5) mg/kg/day for 28 days, Day 15 through Day 42, FIG. 5C): significantly higher than those observed in vehicle-treated rats from Day 15 through Day 42 | Mutant RET frequency versus vehicle controls (in words) ([1]; 12.5, 25, 50 (reduced to 37.5) mg/kg/day for 28 days, days 15, 29, 42, FIG. 5B, Dunnett's t-test p<0.05): each dose group was significantly elevated relative to vehicle controls at every time point studied | Maximum Avg. Mutant Cell Freq., Mutant RETs [1, 7]: 106 Mutant RETs (d29); × 10^−6 | Maximum Avg. Mutant Cell Freq., Mutant RBCs [1, 6]: 72 Mutant RBCs (d42) × 10^−6 | Mutant RBCs per 10^6 Total RBCs [3, 8]: 30 per 10^6 Total RBCs and 34.1 per 10^6 Total RBCs | Mutant RETs per 10^6 Total RETs [3, 8]: 25.2 per 10^6 Total RETs and 31.2 per 10^6 Total RETs | Mutant RBCs per 10^6 Total RBCs (Post-Column) ([3]; "100" sample: 40 mg/kg/day 1,3-PS days 1-14, post-column, avg 112,632,575 RBCs interrogated per sample, listed as 100): 30 per 10^6 Total RBCs and 34.1 per 10^6 Total RBCs | Mutant NCEs (events counted), POST-Magnetic Field Analyses [3, 9]: 3,304 and 3,192 | Mutant RETs (events counted), POST-Magnetic Field Analyses [3, 9]: 173 and 182 | Mutant RBC:Bead Ratio, POST-Magnetic Field Analyses [3, 10]: 0.2402 and 0.2497 | Mutant RET:Bead Ratio, POST-Magnetic Field Analyses [3, 10]: 0.01195 and 0.01347 | Mutant RBCs per 10^6 Total RBCs (Pre-Column) ([3]; "100" sample: 40 mg/kg/day 1,3-PS days 1-14, pre-column, avg 1,323,693 RBCs interrogated per sample): 27 per 10^6 Total RBCs | Mutant NCEs (events counted), PRE-Magnetic Field Analyses ([3]; "100" sample: 40 mg/kg/day 1,3-PS days 1-14, pre-magnetic field, 3 min, listed as 100): 36 and 31 | Mutant RETs (events counted), PRE-Magnetic Field Analyses ([3]; "100" sample: blood of rat given 40 mg/kg/day 1,3-PS oral gavage days 1-14, pre-magnetic field, 3 min): 1 | % RET ([4]; 60 mg/kg/day oral gavage days 1-3, blood day 29, technical replicates, listed as PS): 4.02% and 4.08% (2×) | % RET versus vehicle (in words) ([4]; 12.5, 25, 50 (reduced to 37.5) mg/kg/day for 28 days, Day 15, FIG. 5A): reduced in a dose-dependent manner | % RET ([4]; "100" sample: 40 mg/kg/day 1,3-PS oral gavage days 1-14, blood day 35, listed as 100): 5.92% and 5.9% | Frequencies of mutant phenotype RBCs and RETs versus vehicle (in words) [5]: clearly led to elevated frequencies of mutant phenotype RBCs and RETs | Mutant RBCs per 10^6 Total RBCs [5, 11]: 61.1 per 10^6 Total RBCs and 65.7 per 10^6 Total RBCs and 55 per 10^6 Total RBCs | Mutant RETs per 10^6 Total RETs [5, 11]: 22 per 10^6 Total RETs and 16.6 per 10^6 Total RETs and 17.7 per 10^6 Total RETs | Mutant NCEs (events counted), POST-Magnetic Field Analyses [5, 12]: 6,466 and 7,590 and 7,054 | Mutant RETs (events counted), POST-Magnetic Field Analyses [5, 12]: 95 and 79 and 94 | Mutant RBC:Bead Ratio, POST-Magnetic Field Analyses [5, 13]: 0.4138 and 0.4132 (2×) | Mutant RET:Bead Ratio, POST-Magnetic Field Analyses [5, 13]: 0.00599 and 0.00426 and 0.3748 | Mutant NCEs (events counted), PRE-Magnetic Field Analyses [5, 14]: 83 and 75 and 64 | Mutant RETs (events counted), PRE-Magnetic Field Analyses [5, 14]: 1 (2×) and 2

O=C(O)CCCc1ccc(N(CCCl)CCCl)cc1 [Chlorambucil]
Maximum Avg. Mutant Cell Freq., Mutant RBCs [1, 6]: 21 Mutant RBCs (d42) × 10^−6 | Maximum Avg. Mutant Cell Freq., Mutant RETs [1, 6]: 40 Mutant RETs (d42); × 10^−6

Cn1cnc([N+](=O)[O-])c1Sc1ncnc2nc[nH]c12 [Azathioprine]
Maximum Avg. Mutant Cell Freq., Mutant RETs ([1]; male, Sprague Dawley, rat, in vivo, po, 29 day): 13 Mutant RETs (d29); × 10^−6 | Maximum Avg. Mutant Cell Freq., Mutant RBCs ([1]; male, Sprague Dawley, rat, in vivo, po, 42 day): 4 Mutant RBCs (d42) × 10^−6

O=P1(N(CCCl)CCCl)NCCCO1 (stereo not drawn) [Cyclophosphamide]
Maximum Avg. Mutant Cell Freq., Mutant RETs [1, 7]: 5 Mutant RETs (d29); × 10^−6 | Maximum Avg. Mutant Cell Freq., Mutant RBCs [1, 6]: 3 Mutant RBCs (d42) × 10^−6

CC(=O)Nc1ccc2c(c1)Cc1ccccc1-2 [2-Acetylaminofluorene]
Maximum Avg. Mutant Cell Freq., Mutant RBCs [1, 7]: 58 Mutant RBCs (d29) × 10^−6 | Maximum Avg. Mutant Cell Freq., Mutant RETs [1, 6]: 50 Mutant RETs (d42); × 10^−6

S=P(N1CC1)(N1CC1)N1CC1 [Thiotepa]
Maximum Avg. Mutant Cell Freq., Mutant RETs [1, 7]: 79 Mutant RETs (d29); × 10^−6 | Maximum Avg. Mutant Cell Freq., Mutant RBCs [1, 6]: 69 Mutant RBCs (d42) × 10^−6
